Results from patent US10815230B2, “Casein kinase 1 delta inhibitor” (ELECTROPHORETICS LIMITED, priority 2015, dated 2020).

Key:
Test in all cases: KINOMEscan binding assay
Settings in all cases: read-out: % Ctrl @ 10000 nM
TLK2 = TLK2 (Homo sapiens, UniProt Q86UE8)
SLK = SLK (Homo sapiens, UniProt Q9H2G2)
CAMKK2 = CAMKK2 (Homo sapiens, UniProt Q96RR4)
TXK = TXK (Homo sapiens, UniProt P42681)
ITK = ITK (Homo sapiens, UniProt Q08881)
CDK3 = CDK3 (Homo sapiens, UniProt Q00526)
ULK3 = target: T1, ULK3 (Homo sapiens, UniProt Q6PHR2)
T1 construct: purchased DiscoveRx (KINOMEscan, LeadHunter Discovery services)

[1] = target: JAK2 (JH1domain-catalytic) (Homo sapiens, UniProt O60674)
ACVR1 = ACVR1 (Homo sapiens, UniProt Q04771)
INSR = INSR (Homo sapiens, UniProt P06213)
PAK4 = PAK4 (Homo sapiens, UniProt O96013)
BIKE = BIKE (Homo sapiens, UniProt Q9NSY1)
TNNI3K = TNNI3K (Homo sapiens, UniProt Q59H18)
YES = YES (Homo sapiens, UniProt P07947)
BRSK1 = BRSK1 (Homo sapiens, UniProt Q8TDC3)
DAPK2 = DAPK2 (Homo sapiens, UniProt Q9UIK4)
[2] = target: RSK4 Kin.Dom.2-C-terminal (Homo sapiens, UniProt Q9UK32)
HPK1 = HPK1 (Homo sapiens, UniProt Q92918)
CSNK2A1 = CSNK2A1 (Homo sapiens, UniProt P68400)
CSK = CSK (Homo sapiens, UniProt P41240)
LTK = target: T2, LTK (Homo sapiens, UniProt P29376)
T2 construct: T7 phage fusion (most assays) or DNA label after HEK293 expression; purchased DiscoveRx (KINOMEscan, LeadHunter Discovery services); host or cells: T7 phage in E. coli (BL21-derived) or HEK293

PIK3CB = PIK3CB (Homo sapiens, UniProt P42338)
CDK5 = CDK5 (Homo sapiens, UniProt Q00535)
FRK = FRK (Homo sapiens, UniProt P42685)
ALK (C1156Y) = ALK (C1156Y) (Homo sapiens, UniProt Q9UM73, C1156Y)
PRKD3 = PRKD3 (Homo sapiens, UniProt O94806)
BRAF (V600E) = BRAF (V600E) (Homo sapiens, UniProt P15056, V600E)
AMPK-alpha2 = AMPK-alpha2 (Homo sapiens, UniProt P54646)
MAPKAPK2 = target: T3, MAPKAPK2 (Homo sapiens, UniProt P49137)
T3 construct: T7 phage fusion (most assays) or DNA label after HEK293 expression; purchased DiscoveRx (KINOMEscan, LeadHunter Discovery services); host or cells: T7 phage in E. coli (BL21-derived) or HEK293

NEK7 = NEK7 (Homo sapiens, UniProt Q8TDX7)
[3] = target: ABL1 (F317L) non-phosphorylated (Homo sapiens, UniProt P00519, F317L)
ERN1 = ERN1 (Homo sapiens, UniProt O75460)
KIT (A829P) = KIT (A829P) (Homo sapiens, UniProt P10721, A829P)
MRCKA = MRCKA (Homo sapiens, UniProt Q5VT25)
NEK11 = NEK11 (Homo sapiens, UniProt Q8NG66)
HIPK1 = HIPK1 (Homo sapiens, UniProt Q86Z02)
ROCK1 = ROCK1 (Homo sapiens, UniProt Q13464)
EPHB2 = EPHB2 (Homo sapiens, UniProt P29323)
GAK = GAK (Homo sapiens, UniProt O14976)
MLCK = MLCK (Homo sapiens, UniProt Q32MK0)
SRC = SRC (Homo sapiens, UniProt P12931)
FLT1 = FLT1 (Homo sapiens, UniProt P17948)
Chain of FLT1 (P17948 27-1338): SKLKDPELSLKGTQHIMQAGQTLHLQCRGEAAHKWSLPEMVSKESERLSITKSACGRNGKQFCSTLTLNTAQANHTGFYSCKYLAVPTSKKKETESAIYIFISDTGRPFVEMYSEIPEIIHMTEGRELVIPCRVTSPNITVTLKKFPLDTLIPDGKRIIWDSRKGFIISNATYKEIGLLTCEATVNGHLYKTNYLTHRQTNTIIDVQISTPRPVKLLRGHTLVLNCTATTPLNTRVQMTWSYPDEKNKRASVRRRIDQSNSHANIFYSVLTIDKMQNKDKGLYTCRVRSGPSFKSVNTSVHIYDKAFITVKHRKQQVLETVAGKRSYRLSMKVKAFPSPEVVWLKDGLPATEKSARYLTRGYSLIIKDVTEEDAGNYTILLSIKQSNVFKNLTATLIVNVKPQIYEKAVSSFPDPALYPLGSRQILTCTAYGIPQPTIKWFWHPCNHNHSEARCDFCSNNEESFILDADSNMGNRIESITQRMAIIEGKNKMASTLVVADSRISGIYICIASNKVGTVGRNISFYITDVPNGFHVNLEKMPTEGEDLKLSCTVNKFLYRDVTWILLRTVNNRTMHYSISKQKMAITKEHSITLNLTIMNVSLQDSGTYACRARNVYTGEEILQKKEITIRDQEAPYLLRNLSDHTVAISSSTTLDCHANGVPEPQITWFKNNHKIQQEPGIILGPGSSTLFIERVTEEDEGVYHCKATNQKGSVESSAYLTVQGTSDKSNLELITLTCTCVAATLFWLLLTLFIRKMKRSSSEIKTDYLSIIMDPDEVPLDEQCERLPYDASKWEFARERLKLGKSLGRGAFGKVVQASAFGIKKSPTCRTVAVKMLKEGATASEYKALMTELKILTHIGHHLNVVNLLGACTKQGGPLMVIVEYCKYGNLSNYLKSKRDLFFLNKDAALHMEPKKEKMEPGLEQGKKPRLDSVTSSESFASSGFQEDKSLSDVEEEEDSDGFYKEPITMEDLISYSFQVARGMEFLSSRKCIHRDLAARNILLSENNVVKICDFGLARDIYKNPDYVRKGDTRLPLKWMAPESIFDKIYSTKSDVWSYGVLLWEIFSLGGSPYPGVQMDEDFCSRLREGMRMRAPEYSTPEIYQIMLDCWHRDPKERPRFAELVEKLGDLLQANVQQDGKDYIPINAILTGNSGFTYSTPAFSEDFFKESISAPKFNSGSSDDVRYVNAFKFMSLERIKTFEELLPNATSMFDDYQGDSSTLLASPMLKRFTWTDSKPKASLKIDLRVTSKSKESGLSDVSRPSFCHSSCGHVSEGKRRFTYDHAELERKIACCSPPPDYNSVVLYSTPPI

Chain of ITK (Q08881 whole entry): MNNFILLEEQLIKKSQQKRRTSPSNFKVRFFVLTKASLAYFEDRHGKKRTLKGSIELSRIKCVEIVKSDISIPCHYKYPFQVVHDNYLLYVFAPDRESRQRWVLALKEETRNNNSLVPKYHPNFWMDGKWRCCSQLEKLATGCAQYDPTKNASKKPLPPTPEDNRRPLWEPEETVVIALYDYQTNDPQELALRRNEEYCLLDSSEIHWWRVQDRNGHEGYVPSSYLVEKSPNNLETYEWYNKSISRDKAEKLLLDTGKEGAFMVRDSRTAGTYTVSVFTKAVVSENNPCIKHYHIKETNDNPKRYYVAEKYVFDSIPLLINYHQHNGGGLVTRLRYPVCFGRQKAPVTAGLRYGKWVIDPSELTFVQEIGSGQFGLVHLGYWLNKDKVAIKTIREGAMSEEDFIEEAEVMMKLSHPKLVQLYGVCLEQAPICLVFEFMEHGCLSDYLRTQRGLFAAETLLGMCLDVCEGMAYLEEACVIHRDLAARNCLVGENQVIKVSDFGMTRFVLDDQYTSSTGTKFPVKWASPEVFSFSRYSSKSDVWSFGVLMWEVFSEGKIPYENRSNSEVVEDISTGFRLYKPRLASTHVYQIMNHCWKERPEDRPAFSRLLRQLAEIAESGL
Chain of FRK (P42685 whole entry): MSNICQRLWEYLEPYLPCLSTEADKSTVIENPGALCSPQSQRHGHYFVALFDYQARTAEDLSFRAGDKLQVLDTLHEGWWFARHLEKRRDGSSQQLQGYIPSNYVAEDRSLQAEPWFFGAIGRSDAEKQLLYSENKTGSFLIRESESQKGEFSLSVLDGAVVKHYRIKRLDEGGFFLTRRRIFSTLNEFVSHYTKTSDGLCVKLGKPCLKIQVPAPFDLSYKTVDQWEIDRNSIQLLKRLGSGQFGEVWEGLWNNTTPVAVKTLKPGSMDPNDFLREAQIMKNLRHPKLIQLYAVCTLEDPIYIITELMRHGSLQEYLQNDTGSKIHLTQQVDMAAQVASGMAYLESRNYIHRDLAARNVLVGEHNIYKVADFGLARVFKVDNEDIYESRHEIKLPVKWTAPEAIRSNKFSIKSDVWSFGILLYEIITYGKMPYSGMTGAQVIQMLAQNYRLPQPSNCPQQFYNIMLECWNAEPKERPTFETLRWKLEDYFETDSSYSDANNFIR
Chain of HPK1 (Q92918 whole entry): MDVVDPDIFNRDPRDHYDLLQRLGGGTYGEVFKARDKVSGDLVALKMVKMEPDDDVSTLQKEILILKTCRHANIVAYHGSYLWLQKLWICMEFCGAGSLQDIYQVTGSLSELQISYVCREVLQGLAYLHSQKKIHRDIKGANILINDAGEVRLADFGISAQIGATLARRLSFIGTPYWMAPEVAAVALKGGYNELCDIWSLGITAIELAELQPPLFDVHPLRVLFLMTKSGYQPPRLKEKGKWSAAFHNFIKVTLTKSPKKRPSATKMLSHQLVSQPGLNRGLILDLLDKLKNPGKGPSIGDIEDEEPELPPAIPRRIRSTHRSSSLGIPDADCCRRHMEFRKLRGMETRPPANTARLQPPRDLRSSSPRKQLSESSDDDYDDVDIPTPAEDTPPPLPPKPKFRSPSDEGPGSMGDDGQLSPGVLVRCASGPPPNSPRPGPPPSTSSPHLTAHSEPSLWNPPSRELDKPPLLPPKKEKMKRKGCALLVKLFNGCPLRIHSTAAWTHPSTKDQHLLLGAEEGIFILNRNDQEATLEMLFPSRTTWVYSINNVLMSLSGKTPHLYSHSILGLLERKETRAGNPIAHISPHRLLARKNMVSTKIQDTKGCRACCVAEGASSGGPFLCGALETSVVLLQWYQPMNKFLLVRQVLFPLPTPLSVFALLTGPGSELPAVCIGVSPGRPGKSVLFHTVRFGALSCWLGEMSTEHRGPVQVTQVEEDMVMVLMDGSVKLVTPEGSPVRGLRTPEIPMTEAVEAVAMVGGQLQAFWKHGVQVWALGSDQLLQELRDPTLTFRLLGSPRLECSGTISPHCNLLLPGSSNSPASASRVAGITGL
Chain of CAMKK2 (Q96RR4 whole entry): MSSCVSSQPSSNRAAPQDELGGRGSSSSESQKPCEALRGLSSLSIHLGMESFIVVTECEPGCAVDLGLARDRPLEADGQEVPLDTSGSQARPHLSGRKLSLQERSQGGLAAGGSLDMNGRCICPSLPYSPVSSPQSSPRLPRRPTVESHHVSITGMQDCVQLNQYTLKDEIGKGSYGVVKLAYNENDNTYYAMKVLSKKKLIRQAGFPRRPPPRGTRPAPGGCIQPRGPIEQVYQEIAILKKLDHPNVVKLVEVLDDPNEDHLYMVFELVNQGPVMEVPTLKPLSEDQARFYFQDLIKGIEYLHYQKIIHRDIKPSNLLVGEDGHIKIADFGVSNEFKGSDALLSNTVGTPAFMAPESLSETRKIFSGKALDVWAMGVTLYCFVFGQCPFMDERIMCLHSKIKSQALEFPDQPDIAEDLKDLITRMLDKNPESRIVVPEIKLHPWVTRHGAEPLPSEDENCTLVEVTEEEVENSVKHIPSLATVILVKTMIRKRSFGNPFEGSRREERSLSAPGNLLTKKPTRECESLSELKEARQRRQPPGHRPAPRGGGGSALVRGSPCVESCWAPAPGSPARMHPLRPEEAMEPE
Chain of HIPK1 (Q86Z02 whole entry): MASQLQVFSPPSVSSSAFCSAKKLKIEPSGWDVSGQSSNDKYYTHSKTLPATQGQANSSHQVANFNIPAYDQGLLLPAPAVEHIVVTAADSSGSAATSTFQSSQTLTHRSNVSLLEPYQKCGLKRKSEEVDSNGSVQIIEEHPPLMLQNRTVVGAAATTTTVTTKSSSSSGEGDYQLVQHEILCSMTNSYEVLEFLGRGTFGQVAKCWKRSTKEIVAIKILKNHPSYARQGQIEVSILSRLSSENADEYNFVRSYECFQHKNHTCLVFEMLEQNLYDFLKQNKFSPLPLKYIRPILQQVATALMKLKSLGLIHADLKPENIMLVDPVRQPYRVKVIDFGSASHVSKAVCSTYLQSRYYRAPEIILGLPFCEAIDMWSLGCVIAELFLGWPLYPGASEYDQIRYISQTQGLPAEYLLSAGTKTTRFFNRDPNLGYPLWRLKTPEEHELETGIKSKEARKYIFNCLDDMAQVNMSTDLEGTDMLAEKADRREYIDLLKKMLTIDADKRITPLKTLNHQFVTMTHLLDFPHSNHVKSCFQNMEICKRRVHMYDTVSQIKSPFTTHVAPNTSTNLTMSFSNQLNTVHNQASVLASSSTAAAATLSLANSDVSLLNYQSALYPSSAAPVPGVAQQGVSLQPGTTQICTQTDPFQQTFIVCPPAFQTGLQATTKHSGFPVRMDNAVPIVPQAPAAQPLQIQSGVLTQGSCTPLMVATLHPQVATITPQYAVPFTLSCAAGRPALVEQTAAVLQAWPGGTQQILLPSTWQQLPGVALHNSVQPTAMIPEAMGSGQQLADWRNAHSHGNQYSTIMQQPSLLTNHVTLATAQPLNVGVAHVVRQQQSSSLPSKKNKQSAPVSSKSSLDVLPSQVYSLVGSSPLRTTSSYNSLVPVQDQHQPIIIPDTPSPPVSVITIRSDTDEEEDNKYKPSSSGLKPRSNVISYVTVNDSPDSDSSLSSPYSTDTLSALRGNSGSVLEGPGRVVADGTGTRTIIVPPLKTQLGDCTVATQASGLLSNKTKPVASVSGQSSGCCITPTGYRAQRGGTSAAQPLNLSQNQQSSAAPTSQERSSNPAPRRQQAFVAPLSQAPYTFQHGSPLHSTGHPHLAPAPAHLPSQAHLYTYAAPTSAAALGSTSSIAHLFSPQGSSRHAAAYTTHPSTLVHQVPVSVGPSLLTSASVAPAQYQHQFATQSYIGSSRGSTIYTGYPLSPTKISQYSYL

Nc1ncc(-c2nc3ccccc3o2)c(-c2ccncc2)n1 [Comparative Compound 324, 5-(1,3-benzoxazol-2-yl)-4-(pyridine-4-yl)pyrimidin-2-amine] gave a remaining binding at 10 µM (TLK2) of 100%, a remaining binding at 10 µM (SLK) of 63% and a remaining binding at 10 µM (CAMKK2) of 97%. It also gave a remaining binding at 10 µM (TXK) of 93%, a remaining binding at 10 µM (ITK) of 86% and a remaining binding at 10 µM (CDK3) of 98%. It also gave a remaining binding at 10 µM (ULK3) of 100%, a remaining binding at 10 µM [1] of 98% and a remaining binding at 10 µM (ACVR1) of 100%. It also gave a remaining binding at 10 µM (INSR) of 100%, a remaining binding at 10 µM (PAK4) of 98% and a remaining binding at 10 µM (BIKE) of 100%. For the same compound, the remaining binding at 10 µM (TNNI3K) was 100%, the remaining binding at 10 µM (YES) was 100% and the remaining binding at 10 µM (BRSK1) was 98%. The remaining binding at 10 µM (DAPK2) was 100%, the remaining binding at 10 µM [2] was 35% and the remaining binding at 10 µM (HPK1) was 86%. The remaining binding at 10 µM (CSNK2A1) was 56%, the remaining binding at 10 µM (CSK) was 100% and the remaining binding at 10 µM (LTK) was 74%. The remaining binding at 10 µM (PIK3CB) was 100%, the remaining binding at 10 µM (CDK5) was 100% and the remaining binding at 10 µM (FRK) was 100%. It also gave a remaining binding at 10 µM (ALK (C1156Y)) of 100%, a remaining binding at 10 µM (PRKD3) of 91% and a remaining binding at 10 µM (BRAF (V600E)) of 59%. The remaining binding at 10 µM (AMPK-alpha2) was 100%, the remaining binding at 10 µM (MAPKAPK2) was 100% and the remaining binding at 10 µM (NEK7) was 100%. It also gave a remaining binding at 10 µM [3] of 100%, a remaining binding at 10 µM (ERN1) of 88% and a remaining binding at 10 µM (KIT (A829P)) of 79%. For the same compound, the remaining binding at 10 µM (MRCKA) was 99%, the remaining binding at 10 µM (NEK11) was 86% and the remaining binding at 10 µM (HIPK1) was 64%. For the same compound, the remaining binding at 10 µM (ROCK1) was 96%, the remaining binding at 10 µM (EPHB2) was 99% and the remaining binding at 10 µM (GAK) was 87%. The remaining binding at 10 µM (MLCK) was 94%, the remaining binding at 10 µM (SRC) was 84% and the remaining binding at 10 µM (FLT1) was 91%.

Work on CNc1c(C(N)=O)c2ccccn2c1C(=O)c1ccc(F)cc1 [Compound A, 2-methyl-amino-3-[(4-fluorophenyl)carbonyl]indolizine-1-carboxamide] yielded a remaining binding at 10 µM (TLK2) of 94%, a remaining binding at 10 µM (SLK) of 100% and a remaining binding at 10 µM (CAMKK2) of 82%. For the same compound, the remaining binding at 10 µM (TXK) was 45%, the remaining binding at 10 µM (ITK) was 78% and the remaining binding at 10 µM (CDK3) was 92%. The remaining binding at 10 µM (ULK3) was 100%, the remaining binding at 10 µM [1] was 90% and the remaining binding at 10 µM (ACVR1) was 95%. The remaining binding at 10 µM (INSR) was 100%, the remaining binding at 10 µM (PAK4) was 89% and the remaining binding at 10 µM (BIKE) was 85%. It also gave a remaining binding at 10 µM (TNNI3K) of 78%, a remaining binding at 10 µM (YES) of 78% and a remaining binding at 10 µM (BRSK1) of 100%. For the same compound, the remaining binding at 10 µM (DAPK2) was 85%, the remaining binding at 10 µM [2] was 6.6% and the remaining binding at 10 µM (HPK1) was 82%. For the same compound, the remaining binding at 10 µM (CSNK2A1) was 53%, the remaining binding at 10 µM (CSK) was 91% and the remaining binding at 10 µM (LTK) was 85%. It also gave a remaining binding at 10 µM (PIK3CB) of 100%, a remaining binding at 10 µM (CDK5) of 81% and a remaining binding at 10 µM (FRK) of 58%. The remaining binding at 10 µM (ALK (C1156Y)) was 98%, the remaining binding at 10 µM (PRKD3) was 74% and the remaining binding at 10 µM (BRAF (V600E)) was 86%. The remaining binding at 10 µM (AMPK-alpha2) was 99%, the remaining binding at 10 µM (MAPKAPK2) was 100% and the remaining binding at 10 µM (NEK7) was 100%. For the same compound, the remaining binding at 10 µM [3] was 88%, the remaining binding at 10 µM (ERN1) was 84% and the remaining binding at 10 µM (KIT (A829P)) was 86%. It also gave a remaining binding at 10 µM (MRCKA) of 94%, a remaining binding at 10 µM (NEK11) of 88% and a remaining binding at 10 µM (HIPK1) of 51%. It also gave a remaining binding at 10 µM (ROCK1) of 100%, a remaining binding at 10 µM (EPHB2) of 82% and a remaining binding at 10 µM (GAK) of 10%. The remaining binding at 10 µM (MLCK) was 53%, the remaining binding at 10 µM (SRC) was 40% and the remaining binding at 10 µM (FLT1) was 91%.
